According to patent US20030040510A1, “Selective estrogen receptor modulators in combination with estrogens” (Endorecherche, Inc., priority 2000, published 2003):
Where “and” joins values, the source holds several entries; their conditions need not be identical. Identical values can stand only once. Counter-ions that a name gives are not always drawn.

Key:
[1] = test system: breast and endometrial tissues; assay: Antiestrogens tested for SERM function and estrogenic activity in breast and endometrium; settings: for Estrogenic activity in breast and endometrial tissues: physiological or pharmacological concentrations
Excerpt: As used herein, a selective estrogen receptor modulator (SERM) is a compound that either directly or through its active metabolite functions as an estrogen receptor antagonist (“antiestrogen”) in breast tissue, yet provides estrogenic or estrogen-like effect on bone tissue and on serum cholesterol levels (i.e. by reducing serum cholesterol). Non-steroidal compounds that function as estrogen receptor antagonists in vitro or in human or rat breast tissue (especially if the compound acts as an antiestrogen on human breast cancer cells) is likely to function as a SERM. Conversely, steroidal antiestrogens tend not to function as SERMs because they tend not to display any beneficial effect on serum cholesterol. […] These SERMs may be called “pure SERMs”. […] This second series of SERMs may be called “mixed SERMs”. The unwanted estrogenic activities of these “mixed SERMs”, may be inhibited by addition of pure “SERMs” as shown in FIGS. 6 and 7 in in vitro tests and in FIG. 9 in an in vivo test of breast cancer.

[2] = test system: ZR-75-1 breast tumors; assay: Growth and response category of human ZR-75-1 breast tumors in OVX nude mice, 7 antiestrogens, 161 days (Example 8); assay type: in vivo; settings: 161 days
Protocol: The mice (5 per cage) were housed in vinyl cages equipped with air filter lids, which were kept in laminar airflow hoods and maintained under pathogen-limiting conditions. The photoperiod was 12 hours of light and 12 hours of darkness (lights on at 07:15). Cages, bedding and food (Agway Pro-Lab R-M-H Diet #4018) were autoclaved before use. Water was autoclaved and provided ad libitum. Bilateral ovariectomy was performed under isoflurane-induced anesthesia. […] Randomization and treatments were started one week later. […] The 17 groups included two control groups (OVX and OVX+Estrone), seven groups supplemented with an estrone implant and treated with an antiestrogen and eight other groups that received an antiestrogen alone. The estrone implants were then removed from the animals in the ovariectomized control group (OVX) and in groups that were to receive the antiestrogen alone. […] Tamoxifen was purchased from […], Israel) while toremifene citrate was purchased from Orion (Espoo, Finland). […] Animals in both control groups received 0.2 ml of the vehicle alone. The antiestrogen suspensions at the appropriate concentration were prepared each month, stored at 4° C. and used under constant agitation. Powder stock were hermetically stored at 4° C. […] Tumor response was assessed at the end of the study or at death of each animal, if it occurred during the course of the experiment. In this case, only data of mice that survived for at least half of the study (84 days) were used in the tumor response analysis.

[3] = test system: ZR-75-1 breast tumor xenografts; assay: Growth of human ZR-75-1 breast tumor xenografts in OVX nude mice supplemented with estrone (DHEA, EM-800; Example 1); settings: OVX + E1 (0.5 μg) alone, 9.5 months
[4] = Tissue distribution of radioactivity after a single oral dose of ^14C-EM-800; assay type: in vivo, female Long-Evans rats; settings: for Drug-derived radioactivity, brain / Drug-derived radioactivity, blood / Drug-derived radioactivity, plasma: 20 mg/kg
Excerpt: It is important to note that some of the radioactivity detected in the brain tissue may be due to residual blood in the tissue. Additionally, the radiochemical purity of the ^14C-EM-800 used for this study was minimally 96.25%.

[5] = test system: ovariectomized female rats; assay: Prevention of bone loss, body fat, serum cholesterol and ALP, 26-week treatment of OVX rats (Example 5A, experiment 2); assay type: in vivo, Sprague-Dawley rats; settings: 26 weeks
Protocol: Ten to twelve week-old female Sprague-Dawley rats (Crl:CD(SD)Br) (Charles River Laboratory, St-Constant, Canada) weighing approximately 220-270 g at start of treatment were used. The animals were acclimatized to the environmental conditions (temperature: 22±3° C.; humidity: 50±20%; 12-h light-12-h dark cycles, lights on at 07:15 h) for at least 1 week before starting the experiments. The animals were housed individually and were allowed free access to tap water and a pelleted certified rodent feed (Lab Diet 5002, Ralston Purina, St-Louis, Mo.). Experiments were conducted in an animal facility approved by the Canadian Council on Animal Care (CCAC) and the Association for Assessment and Accreditation of Laboratory Animal Care (AAALAC) in accordance with the CCAC Guide for Care and Use of Experimental Animals.
On day 1 of the study, the animals of the appropriate groups were bilaterally OVX under isoflurane anesthesia. Tested compounds were administered as suspension in 0.4% methylcellulose by oral gavage. Treatments were initiated on day 2 of the study and were performed once daily during 26 weeks. In both experiments, animals not receiving a test article were treated with the appropriate vehicle alone during the same period.
After 3 months (experiment 1) or 26 weeks (experiment 2) of treatment, individual rats under Isoflurane anesthesia had their whole body skeleton and lumbar spine scanned using dual energy x-ray absorptiometry (DEXA; QDR 4500A, Hologic, Waltham, Mass.) and a Regional High Resolution Scan software. The bone mineral density (BMD) of the lumbar spine (vertebrae L2 to L4) and the total body composition (fat percentage) were determined.
After 3 months (experiment 1) or 26 weeks (experiment 2) of treatment, blood samples were collected at the jugular vein from overnight fasted animals (under Isoflurane anesthesia). Samples were processed for serum preparation and frozen at −80° C. until assay. Serum cholesterol levels and alkaline phospatase activity (ALP) were determined using the Boehringer Mannheim Diagnostic Hitachi 911 Analyzer (Boehringer Mannheim Diagnostic Laboratory Systems).

[6] = 200 μg daily, absence of estrone

## Cc1c(-c2ccc(O)cc2)n(Cc2ccc(OCCN3CCCCCC3)cc2)c2ccc(O)cc12 [TSE 424]
[1]
  Function as SERM: found to function as SERMs

## C[C@]12CC[C@@H]3c4ccc(O)cc4C[C@@H](CCCCCCCCC[S+]([O-])CCCC(F)(F)C(F)(F)F)[C@H]3[C@@H]1CC[C@@H]2O (stereo partly shown) [ICI 182,780]
[1]
  Function as SERM: not to function as a-SERMs

## CCC(=C(c1ccc(O)cc1)c1ccc(OCCN(C)C)cc1)c1ccccc1 [4-hydroxy-Tamoxifen, 1-(4-dimethylaminoethoxyphenyl)-1-(4-hydroxyphenyl)-2-phenyl-but-1-ene]
[1]
  Function as SERM: found to function as SERMs
  Estrogenic activity in breast and endometrial tissues: have some estrogenic activities

## CN(C)CCOc1ccc(/C(=C(/CCCl)c2ccccc2)c2ccc(O)cc2)cc1 [OH-Toremifene, (Z)-(2)-2-[4-(4-chloro-1-(4-hydroxyphenyl)-2-phenyl-1-butenyl)phenoxy]-N,N-dimethyletha namine]
[1]
  Function as SERM: found to function as SERMs
  Estrogenic activity in breast and endometrial tissues: have some estrogenic activities

## CC/C(=C(\c1ccccc1)c1ccc(OCCN(C)C)cc1)c1ccccc1 [Tamoxifen, (Z)-2-[4-(1,2-diphenyl-1-butenyl)phenoxy]-N,N-dimethylethanamine]
[1]
  Function as SERM: found to function as SERMs
  Estrogenic activity in breast and endometrial tissues: have some estrogenic activities
[2]; 50 μg daily + estrone
  Progressing tumors: 65%
[2]; [6]
  Progressing tumors: 62%

## C[C@]12CC[C@@H]3c4ccc(O)cc4CC[C@H]3[C@@H]1CCC2=O [E1, Estrone, reference compound]
[3]
  Category of response: Complete: 0 (0) Number and (%)
  Category of response: Partial: 0 (0) Number and (%)
  Category of response: Progression: 14 (87.5) Number and (%)
[3]; listed as estrone
  Category of response: Complete: 0 Number and (%)

## Cl.Oc1ccc(-c2sc3cc(O)ccc3c2Oc2ccc(OCCN3CCCCC3)cc2)cc1 [LY 335 563, 6-hydroxy-3-[4-[2-(1-piperidinyl)ethoxy]phenoxyl]-2-(4-hydroxyphenyl) benzo[b]thiopene hydrochloride]
[1]
  Function as SERM: found to function as SERMs
  Estrogenic activity in breast and endometrial tissues: have some estrogenic activities

## CN(C)CCOc1ccc(/C(=C(/CCCl)c2ccccc2)c2ccccc2)cc1 [Toremifene, (Z)-2-[4-(4-Chloro-1,2-diphenyl-1-butenyl)phenoxy]-N,N-dimethylethanamine]
[1]
  Function as SERM: found to function as SERMs
  Estrogenic activity in breast and endometrial tissues: have some estrogenic activities
[2]; 50 μg daily + estrone
  Progressing tumors: 89%
[2]; [6]
  Increase of average tumor size over baseline: 86%
  Progressing tumors: 21%

## CC1=C(c2ccc(OC(=O)C(C)(C)C)cc2)[C@H](c2ccc(OCCN3CCCCC3)cc2)Oc2cc(OC(=O)C(C)(C)C)ccc21 [^14C-EM-800]
[4]; 2 hours
  Radioactivity in the brain lower than in liver: 412
  Radioactivity in the brain lower than in plasma: 13 times
  Radioactivity in the brain lower than in the blood: 8.4 times
  Radioactivity in the brain lower than in the uterus: 21 times
[4]; 2 hr, 20 mg/kg oral
  Drug-derived radioactivity, liver: 7.2547 μg EM-800 equiv/g tissue
  Drug-derived radioactivity, uterus: 0.3675 μg EM-800 equiv/g tissue
[4]; 4 hr, 20 mg/kg oral
  Drug-derived radioactivity, liver: 3.2201 μg EM-800 equiv/g tissue
  Drug-derived radioactivity, uterus: 0.2866 μg EM-800 equiv/g tissue
[4]; 6 hr, 20 mg/kg oral
  Drug-derived radioactivity, liver: 2.7462 μg EM-800 equiv/g tissue
  Drug-derived radioactivity, uterus: 0.2757 μg EM-800 equiv/g tissue
[4]; 8 hr, 20 mg/kg oral
  Drug-derived radioactivity, liver: 2.7748 μg EM-800 equiv/g tissue
  Drug-derived radioactivity, uterus: 0.3332 μg EM-800 equiv/g tissue
[4]; 12 hr, 20 mg/kg oral
  Drug-derived radioactivity, liver: 1.8232 μg EM-800 equiv/g tissue
  Drug-derived radioactivity, uterus: 0.2407 μg EM-800 equiv/g tissue
[4]; 24 hr, 20 mg/kg oral
  Drug-derived radioactivity, liver: 0.6391 μg EM-800 equiv/g tissue
  Drug-derived radioactivity, uterus: 0.0837 μg EM-800 equiv/g tissue
  Drug-derived radioactivity, brain: 0 ng EM-800 equiv/g tissue and 0 μg EM-800 equiv/g tissue
[4]; 36 hr, 20 mg/kg oral
  Drug-derived radioactivity, liver: 0.4034 μg EM-800 equiv/g tissue
  Drug-derived radioactivity, uterus: 0.0261 μg EM-800 equiv/g tissue
  Drug-derived radioactivity, blood: 0 ng EM-800 equiv/g tissue and 0 μg EM-800 equiv/g tissue
  Drug-derived radioactivity, brain: 0 ng EM-800 equiv/g tissue and 0 μg EM-800 equiv/g tissue
  Drug-derived radioactivity, plasma: 0 ng EM-800 equiv/g tissue and 0 μg EM-800 equiv/g tissue
[4]; 48 hr, 20 mg/kg oral
  Drug-derived radioactivity, liver: 0.2196 μg EM-800 equiv/g tissue
  Drug-derived radioactivity, uterus: 0.0238 μg EM-800 equiv/g tissue
  Drug-derived radioactivity, blood: 0 ng EM-800 equiv/g tissue and 0 μg EM-800 equiv/g tissue
  Drug-derived radioactivity, brain: 0 ng EM-800 equiv/g tissue and 0 μg EM-800 equiv/g tissue
  Drug-derived radioactivity, plasma: 0 ng EM-800 equiv/g tissue and 0 μg EM-800 equiv/g tissue
[4]; 72 hr, 20 mg/kg oral
  Drug-derived radioactivity, liver: 0.1326 μg EM-800 equiv/g tissue
  Drug-derived radioactivity, uterus: 0 μg EM-800 equiv/g tissue
  Drug-derived radioactivity, blood: 0 ng EM-800 equiv/g tissue and 0 μg EM-800 equiv/g tissue
  Drug-derived radioactivity, brain: 0 ng EM-800 equiv/g tissue and 0 μg EM-800 equiv/g tissue
  Drug-derived radioactivity, plasma: 0 ng EM-800 equiv/g tissue and 0 μg EM-800 equiv/g tissue
[4]; 96 hr, 20 mg/kg oral
  Drug-derived radioactivity, liver: 0.0944 μg EM-800 equiv/g tissue
  Drug-derived radioactivity, uterus: 0 μg EM-800 equiv/g tissue
  Drug-derived radioactivity, blood: 0 ng EM-800 equiv/g tissue and 0 μg EM-800 equiv/g tissue
  Drug-derived radioactivity, brain: 0 ng EM-800 equiv/g tissue and 0 μg EM-800 equiv/g tissue
  Drug-derived radioactivity, plasma: 0 ng EM-800 equiv/g tissue and 0 μg EM-800 equiv/g tissue
[4]; 168 hr, 20 mg/kg oral
  Drug-derived radioactivity, liver: 0.0348 μg EM-800 equiv/g tissue
  Drug-derived radioactivity, uterus: 0 μg EM-800 equiv/g tissue
  Drug-derived radioactivity, blood: 0 ng EM-800 equiv/g tissue and 0 μg EM-800 equiv/g tissue
  Drug-derived radioactivity, brain: 0 ng EM-800 equiv/g tissue and 0 μg EM-800 equiv/g tissue
  Drug-derived radioactivity, plasma: 0 ng EM-800 equiv/g tissue and 0 μg EM-800 equiv/g tissue
[4]; female Long-Evans rats, 20 mg/kg oral
  Total drug-derived radioactivity in the brain: not detected after 12 hr post dose

## Oc1ccc2c(c1)CC[C@H](c1ccccc1)[C@@H]2c1ccc(OCCN2CCCC2)cc1 (racemic) [Lasofoxifene, cis-1R-[4′-pyrrolidino-ethoxyphenyl]-2S-phenyl-6-hydroxy-1,2,3,4,-tetrahydronaphthalene D-(−)-tartrate salt]
[1]
  Function as SERM: found to function as SERMs
[5]; OVX rats
  Serum cholesterol: 0.60 ± 0.02 mmol/L
[5]; alone or in combination with Premarin
  OVX-induced increase on serum cholesterol levels: completely prevented
